Results as given in PubChem BioAssay (NCI).
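Assay format: 96-well plates, 48-hour exposure. TGI: concentration producing complete growth inhibition.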

Legend:
Test in all cases: DTP human tumour cell line panel, 48 h
786-0 renal = system: 786-0 renal
A549 NSCLC = system: A549 NSCLC
ACHN renal = system: ACHN renal
CAKI-1 renal = system: CAKI-1 renal
CCRF-CEM leukemia = system: CCRF-CEM leukemia
COLO 205 colon = system: COLO 205 colon
DU-145 prostate = system: DU-145 prostate
EKVX NSCLC = system: EKVX NSCLC
HCC-2998 colon = system: HCC-2998 colon
HCT-116 colon = system: HCT-116 colon
HCT-15 colon = system: HCT-15 colon
HL-60(TB) leukemia = system: HL-60(TB) leukemia
HOP-62 NSCLC = system: HOP-62 NSCLC
HS 578T breast = system: HS 578T breast
HT29 colon = system: HT29 colon
IGROV1 ovarian = system: IGROV1 ovarian
K-562 leukemia = system: K-562 leukemia
KM12 colon = system: KM12 colon
LOX IMVI melanoma = system: LOX IMVI melanoma
M14 melanoma = system: M14 melanoma
MALME-3M melanoma = system: MALME-3M melanoma
MCF7 breast = system: MCF7 breast
MDA-MB-231 breast = system: MDA-MB-231 breast
MDA-MB-435 = system: MDA-MB-435
MDA-N = system: MDA-N
MOLT-4 leukemia = system: MOLT-4 leukemia
NCI-H226 lung = system: NCI-H226 lung
NCI-H23 lung = system: NCI-H23 lung
NCI-H460 lung = system: NCI-H460 lung
NCI-H522 lung = system: NCI-H522 lung
NCI/ADR-RES ovarian = system: NCI/ADR-RES ovarian
OVCAR-3 ovarian = system: OVCAR-3 ovarian
OVCAR-5 ovarian = system: OVCAR-5 ovarian
OVCAR-8 ovarian = system: OVCAR-8 ovarian
PC-3 prostate = system: PC-3 prostate
RPMI-8226 leukemia = system: RPMI-8226 leukemia
RXF 393 renal = system: RXF 393 renal
SF-268 CNS = system: SF-268 CNS
SF-295 CNS = system: SF-295 CNS
SF-539 CNS = system: SF-539 CNS
SK-MEL-28 melanoma = system: SK-MEL-28 melanoma
SK-MEL-5 melanoma = system: SK-MEL-5 melanoma
SN12C renal = system: SN12C renal
SNB-19 CNS = system: SNB-19 CNS
SNB-75 CNS = system: SNB-75 CNS
SR leukemia = system: SR leukemia
SW-620 colon = system: SW-620 colon
TK-10 renal = system: TK-10 renal
U251 CNS = system: U251 CNS
UACC-257 melanoma = system: UACC-257 melanoma
UO-31 renal = system: UO-31 renal
A498 renal = system: A498 renal
HOP-92 NSCLC = system: HOP-92 NSCLC
OVCAR-4 ovarian = system: OVCAR-4 ovarian
SK-MEL-2 melanoma = system: SK-MEL-2 melanoma
SK-OV-3 ovarian = system: SK-OV-3 ovarian
UACC-62 melanoma = system: UACC-62 melanoma
BT-549 breast = system: BT-549 breast

`O=S(CCc1ccccc1)Nc1ccccc1` (configuration not stated) was tested, and the TGI (786-0 renal) was greater than 100 µM, the TGI (A549 NSCLC) was greater than 100 µM and the TGI (ACHN renal) was greater than 100 µM. It also gave a TGI (CAKI-1 renal) greater than 100 µM, a TGI (CCRF-CEM leukemia) greater than 100 µM and a TGI (COLO 205 colon) greater than 100 µM. It also gave a TGI (DU-145 prostate) greater than 100 µM, a TGI (EKVX NSCLC) greater than 100 µM and a TGI (HCC-2998 colon) greater than 100 µM. It also gave a TGI (HCT-116 colon) greater than 100 µM, a TGI (HCT-15 colon) greater than 100 µM and a TGI (HL-60(TB) leukemia) greater than 100 µM. The TGI (HOP-62 NSCLC) was greater than 100 µM, the TGI (HS 578T breast) was greater than 100 µM and the TGI (HT29 colon) was greater than 100 µM. The TGI (IGROV1 ovarian) was greater than 100 µM, the TGI (K-562 leukemia) was greater than 100 µM and the TGI (KM12 colon) was greater than 100 µM. It also gave a TGI (LOX IMVI melanoma) greater than 100 µM, a TGI (M14 melanoma) greater than 100 µM and a TGI (MALME-3M melanoma) greater than 100 µM. It also gave a TGI (MCF7 breast) greater than 100 µM, a TGI (MDA-MB-231 breast) greater than 100 µM and a TGI (MDA-MB-435) greater than 100 µM. For the same compound, the TGI (MDA-N) was greater than 100 µM, the TGI (MOLT-4 leukemia) was greater than 100 µM and the TGI (NCI-H226 lung) was greater than 100 µM. It also gave a TGI (NCI-H23 lung) greater than 100 µM, a TGI (NCI-H460 lung) greater than 100 µM and a TGI (NCI-H522 lung) greater than 100 µM. The TGI (NCI/ADR-RES ovarian) was greater than 100 µM, the TGI (OVCAR-3 ovarian) was greater than 100 µM and the TGI (OVCAR-5 ovarian) was greater than 100 µM. For the same compound, the TGI (OVCAR-8 ovarian) was greater than 100 µM, the TGI (PC-3 prostate) was greater than 100 µM and the TGI (RPMI-8226 leukemia) was greater than 100 µM. It also gave a TGI (RXF 393 renal) greater than 100 µM, a TGI (SF-268 CNS) greater than 100 µM and a TGI (SF-295 CNS) greater than 100 µM. The TGI (SF-539 CNS) was greater than 100 µM, the TGI (SK-MEL-28 melanoma) was greater than 100 µM and the TGI (SK-MEL-5 melanoma) was greater than 100 µM. The TGI (SN12C renal) was greater than 100 µM, the TGI (SNB-19 CNS) was greater than 100 µM and the TGI (SNB-75 CNS) was greater than 100 µM. The TGI (SR leukemia) was greater than 100 µM, the TGI (SW-620 colon) was greater than 100 µM and the TGI (TK-10 renal) was greater than 100 µM. It also gave a TGI (U251 CNS) greater than 100 µM, a TGI (UACC-257 melanoma) greater than 100 µM and a TGI (UO-31 renal) greater than 100 µM.
Compound `O=C1OC(c2ccc(O)c(F)c2)(c2ccc(O)c(F)c2)c2cccc3cccc1c23` has a TGI (A498 renal) greater than 25 µM, a TGI (A549 NSCLC) greater than 25 µM and a TGI (ACHN renal) greater than 25 µM. The TGI (CAKI-1 renal) was 10.1 µM, the TGI (CCRF-CEM leukemia) was greater than 25 µM and the TGI (COLO 205 colon) was greater than 25 µM. For the same compound, the TGI (DU-145 prostate) was greater than 25 µM, the TGI (EKVX NSCLC) was 19.4 µM and the TGI (HCT-116 colon) was greater than 25 µM. For the same compound, the TGI (HCT-15 colon) was greater than 25 µM, the TGI (HL-60(TB) leukemia) was 18.9 µM and the TGI (HOP-62 NSCLC) was greater than 25 µM. The TGI (HOP-92 NSCLC) was greater than 25 µM, the TGI (HS 578T breast) was greater than 25 µM and the TGI (HT29 colon) was greater than 25 µM. It also gave a TGI (IGROV1 ovarian) greater than 25 µM, a TGI (K-562 leukemia) greater than 25 µM and a TGI (KM12 colon) greater than 25 µM. It also gave a TGI (LOX IMVI melanoma) greater than 25 µM, a TGI (M14 melanoma) greater than 25 µM and a TGI (MALME-3M melanoma) greater than 25 µM. It also gave a TGI (MCF7 breast) greater than 25 µM, a TGI (MDA-MB-231 breast) greater than 25 µM and a TGI (MDA-MB-435) greater than 25 µM. For the same compound, the TGI (MDA-N) was greater than 25 µM, the TGI (MOLT-4 leukemia) was greater than 25 µM and the TGI (NCI-H226 lung) was greater than 25 µM. The TGI (NCI-H23 lung) was greater than 25 µM, the TGI (NCI-H460 lung) was greater than 25 µM and the TGI (NCI/ADR-RES ovarian) was greater than 25 µM. It also gave a TGI (OVCAR-3 ovarian) greater than 25 µM, a TGI (OVCAR-4 ovarian) of 193 nM and a TGI (OVCAR-5 ovarian) greater than 25 µM. It also gave a TGI (OVCAR-8 ovarian) greater than 25 µM, a TGI (PC-3 prostate) greater than 25 µM and a TGI (RPMI-8226 leukemia) greater than 25 µM. For the same compound, the TGI (RXF 393 renal) was greater than 25 µM, the TGI (SF-268 CNS) was greater than 25 µM and the TGI (SF-295 CNS) was greater than 25 µM. The TGI (SF-539 CNS) was greater than 25 µM, the TGI (SK-MEL-2 melanoma) was greater than 25 µM and the TGI (SK-MEL-28 melanoma) was greater than 25 µM. It also gave a TGI (SK-MEL-5 melanoma) greater than 25 µM, a TGI (SK-OV-3 ovarian) greater than 25 µM and a TGI (SN12C renal) greater than 25 µM. It also gave a TGI (SNB-19 CNS) greater than 25 µM, a TGI (SR leukemia) greater than 25 µM and a TGI (SW-620 colon) greater than 25 µM. It also gave a TGI (TK-10 renal) greater than 25 µM, a TGI (U251 CNS) greater than 25 µM and a TGI (UACC-257 melanoma) greater than 25 µM. It also gave a TGI (UACC-62 melanoma) greater than 25 µM and a TGI (UO-31 renal) greater than 25 µM.
With `CC(=O)OC1COC(n2c3ccccc3c3ccc4c5ccccc5[nH]c4c32)C(OC(C)=O)C1OC(C)=O` (configuration not stated) the TGI (A498 renal) was 77.7 µM, the TGI (A549 NSCLC) was greater than 100 µM and the TGI (BT-549 breast) was greater than 100 µM. For the same compound, the TGI (CAKI-1 renal) was 65.9 µM, the TGI (CCRF-CEM leukemia) was greater than 100 µM and the TGI (COLO 205 colon) was greater than 100 µM. It also gave a TGI (HCC-2998 colon) greater than 100 µM, a TGI (HCT-116 colon) greater than 100 µM and a TGI (HCT-15 colon) greater than 100 µM. It also gave a TGI (HOP-62 NSCLC) of 53.3 µM, a TGI (HOP-92 NSCLC) of 87.3 µM and a TGI (HT29 colon) of 62.8 µM. It also gave a TGI (IGROV1 ovarian) of 30.8 µM, a TGI (K-562 leukemia) of 82.4 µM and a TGI (KM12 colon) of 37.9 µM. The TGI (MDA-MB-435) was greater than 100 µM, the TGI (MDA-N) was greater than 100 µM and the TGI (MOLT-4 leukemia) was greater than 100 µM. For the same compound, the TGI (NCI-H23 lung) was greater than 100 µM, the TGI (NCI-H460 lung) was 57.6 µM and the TGI (NCI-H522 lung) was 44.6 µM. For the same compound, the TGI (OVCAR-3 ovarian) was greater than 100 µM, the TGI (OVCAR-4 ovarian) was greater than 100000 nM and the TGI (OVCAR-5 ovarian) was greater than 100 µM. The TGI (PC-3 prostate) was 96.5 µM, the TGI (RPMI-8226 leukemia) was greater than 100 µM and the TGI (SF-295 CNS) was 33.3 µM. For the same compound, the TGI (SK-MEL-2 melanoma) was greater than 100 µM, the TGI (SK-MEL-28 melanoma) was greater than 100 µM and the TGI (SK-MEL-5 melanoma) was greater than 100 µM. For the same compound, the TGI (SK-OV-3 ovarian) was 52.1 µM, the TGI (SNB-19 CNS) was greater than 100 µM and the TGI (SNB-75 CNS) was 33.2 µM. For the same compound, the TGI (SW-620 colon) was greater than 100 µM, the TGI (U251 CNS) was 74.2 µM and the TGI (UACC-257 melanoma) was greater than 100 µM. The TGI (UACC-62 melanoma) was greater than 100 µM and the TGI (UO-31 renal) was greater than 100 µM.
